The nature of data set [1]: Stability in iv dosed ddy mouse brain after 30 min. It counts as ADME, organism-based. The following applies: read-out: Stability.
The nature of data set [2]: Ratio of drug level in olfactory bulb against striatum in Sprague-Dawley rat after 30 mins. It counts as ADME, tissue-based. The following applies: in vivo, 0.5 h.
Data set [3] can be described thus: Ratio of drug level in choroids plexus against striatum in Sprague-Dawley rat after 30 mins. The conditions noted are these: in vivo, 0.5 h. It counts as ADME, tissue-based.
The species named for the next data set is Rattus norvegicus. Nature of the data set: Displacement of [11C]flumazenil from CBR in Sprague-Dawley rat brain. A general note: In a radioligand displacement assay an active substance lowers the binding of a labelled ligand.
The target in data set [4] is T1, Translocator protein (Rattus norvegicus, UniProt P16257). Nature of the data set: Displacement of [11C]PK-11195 from PBR in Sprague-Dawley rat brain. Format: tissue-based.
Data set [5] deals with T1, Translocator protein. Nature of the data set: Displacement of [11C]DAA1106 from PBR in Sprague-Dawley rat brain. It counts as tissue-based.
A short description of data set [6]: Distribution coefficient, log D at pH 7.4 by shake flask method. The conditions noted are these: octanol/water. It counts as physicochemical.

The values that follow come from ChEMBL document CHEMBL1141419, “N-(5-Fluoro-2-phenoxyphenyl)-N-(2-[(131)I]iodo-5-me thoxybenzyl)acetamide: a potent iodinated radioligand for the peripheral-type benzodiazepine receptor in brain” (J Med Chem, 2007).

Where only a bound is given, the exact number is not on record here.

T1 sequence (P16257 whole entry, looked up): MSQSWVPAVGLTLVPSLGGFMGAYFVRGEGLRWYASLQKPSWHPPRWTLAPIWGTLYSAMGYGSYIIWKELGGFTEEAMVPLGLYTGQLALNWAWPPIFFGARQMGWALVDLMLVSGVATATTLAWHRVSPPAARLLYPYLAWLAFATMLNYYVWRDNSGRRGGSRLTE

Turning to `COc1ccc([131I])c(CN(C(C)=O)c2cc(F)ccc2Oc2ccccc2)c1`, in data set [1], the remaining at 0.5 h turned out to be 90%. Moreover, the Ratio in data set [2] was found to be 1.5; in data set [3], 3.2.
Regarding `COc1ccc(OC)c(CN(C(C)=O)c2cc(F)ccc2Oc2ccccc2)c1`, the IC50 was over 10000 nM in the data set listed under Rattus norvegicus and 1.3 nM on Translocator protein [4].
As to `CCC(C)N(C)C(=O)c1cc2ccccc2c(-c2ccccc2Cl)n1` (centres undefined), in the data set filed under Rattus norvegicus, the IC50 is over 10000 nM.
Consider `COc1ccc(I)c(CN(C(C)=O)c2cc(F)ccc2Oc2ccccc2)c1`, for which the IC50 at Translocator protein [5] was 7.8 nM; in the data set listed under Rattus norvegicus, over 10000 nM; at Translocator protein [4], 4.4 nM. In data set [6], this compound gave a logD of 4.42.
Take `COc1ccc(OC)c(CN(C(C)=O)c2cc(I)ccc2Oc2ccccc2)c1`: the values for the IC50 at Translocator protein [5], in the data set listed under Rattus norvegicus and at Translocator protein [4] were 69.2 nM, over 10000 nM and 60.1 nM, respectively. The compound further gave a logD in data set [6] of 4.03.

Usually IC50 stands for the concentration that inhibits the measured activity by half. A low value points to inhibition by little substance. The term logD denotes lipophilicity at a set pH, counting ionised and neutral species.
